Oligonucleotides are written 5' to 3', each unit as a sugar letter and its base; * is a phosphorothioate linkage, no mark a phosphodiester; rarer units and linkages stand in square brackets, end groups in braces. Plain capitals give the bases only. Oligonucleotides are given in HELM: sugar(base)linkage, 5' to 3'; d 2'-deoxyribose, r ribose, m 2'-O-methylribose, p phosphate. ss, as = sense and antisense strand; d = 2'-deoxy (DNA); r = 2'-OH (RNA)
Target: UBE2D3
Test: reporter assay of Huesken 2005
Conditions: siRNA
Note: test concentration or dose not given here.

In order of rising normalised inhibition (eCFP-eYFP dual reporter):
1. RNA1{r(A)p.r(A)p.r(G)p.r(C)p.r(C)p.r(A)p.r(C)p.r(A)p.r(A)p.r(U)p.r(U)p.r(A)p.r(U)p.r(G)p.r(G)p.r(G)p.r(A)p.r(C)p.r(C)p.d(T)p.d(T)}|RNA2{r(G)p.r(G)p.r(U)p.r(C)p.r(C)p.r(C)p.r(A)p.r(U)p.r(A)p.r(A)p.r(U)p.r(U)p.r(G)p.r(U)p.r(G)p.r(G)p.r(C)p.r(U)p.r(U)p.d(G)p.d(C)}$$$RNA1{StrandType:ss}|RNA2{StrandType:as}$  52%
2. RNA1{r(A)p.r(A)p.r(U)p.r(U)p.r(C)p.r(A)p.r(U)p.r(U)p.r(U)p.r(U)p.r(C)p.r(C)p.r(U)p.r(A)p.r(C)p.r(A)p.r(G)p.r(A)p.r(C)p.d(T)p.d(T)}|RNA2{r(G)p.r(U)p.r(C)p.r(U)p.r(G)p.r(U)p.r(A)p.r(G)p.r(G)p.r(A)p.r(A)p.r(A)p.r(A)p.r(U)p.r(G)p.r(A)p.r(A)p.r(U)p.r(U)p.d(G)p.d(T)}$$$RNA1{StrandType:ss}|RNA2{StrandType:as}$  62.3%
3. RNA1{r(A)p.r(C)p.r(A)p.r(A)p.r(U)p.r(U)p.r(C)p.r(A)p.r(U)p.r(U)p.r(U)p.r(U)p.r(C)p.r(C)p.r(U)p.r(A)p.r(C)p.r(A)p.r(G)p.d(T)p.d(T)}|RNA2{r(C)p.r(U)p.r(G)p.r(U)p.r(A)p.r(G)p.r(G)p.r(A)p.r(A)p.r(A)p.r(A)p.r(U)p.r(G)p.r(A)p.r(A)p.r(U)p.r(U)p.r(G)p.r(U)p.d(C)p.d(A)}$$$RNA1{StrandType:ss}|RNA2{StrandType:as}$  76.2%
4. RNA1{r(A)p.r(A)p.r(U)p.r(G)p.r(A)p.r(C)p.r(A)p.r(G)p.r(C)p.r(C)p.r(C)p.r(A)p.r(U)p.r(A)p.r(U)p.r(C)p.r(A)p.r(A)p.r(G)p.d(T)p.d(T)}|RNA2{r(C)p.r(U)p.r(U)p.r(G)p.r(A)p.r(U)p.r(A)p.r(U)p.r(G)p.r(G)p.r(G)p.r(C)p.r(U)p.r(G)p.r(U)p.r(C)p.r(A)p.r(U)p.r(U)p.d(A)p.d(G)}$$$RNA1{StrandType:ss}|RNA2{StrandType:as}$  80%
5. RNA1{r(A)p.r(A)p.r(G)p.r(G)p.r(U)p.r(U)p.r(G)p.r(C)p.r(A)p.r(U)p.r(U)p.r(U)p.r(A)p.r(C)p.r(A)p.r(A)p.r(C)p.r(A)p.r(A)p.d(T)p.d(T)}|RNA2{r(U)p.r(U)p.r(G)p.r(U)p.r(U)p.r(G)p.r(U)p.r(A)p.r(A)p.r(A)p.r(U)p.r(G)p.r(C)p.r(A)p.r(A)p.r(C)p.r(C)p.r(U)p.r(U)p.d(A)p.d(G)}$$$RNA1{StrandType:ss}|RNA2{StrandType:as}$  83%

Target: UBE2W
Test: reporter assay of Huesken 2005
Conditions: siRNA

In order of falling normalised inhibition (eCFP-eYFP dual reporter):
1. sense rUrGrGrUrGrArArArArUrArUrUrCrCrUrGrUrUdTdT / antisense rArArCrArGrGrArArUrArUrUrUrUrCrArCrCrAdGdT  115%
2. sense rUrGrCrUrUrUrCrCrArGrCrUrGrCrArArGrGrAdTdT / antisense rUrCrCrUrUrGrCrArGrCrUrGrGrArArArGrCrAdTdG  110%
3. sense rUrCrCrUrGrUrUrCrArUrCrCrUrCrArUrGrUrUdTdT / antisense rArArCrArUrGrArGrGrArUrGrArArCrArGrGrAdAdT  108%
4. sense rUrArUrUrCrCrUrGrUrUrCrArUrCrCrUrCrArUdTdT / antisense rArUrGrArGrGrArUrGrArArCrArGrGrArArUrAdTdT  104%
5. sense rUrGrCrGrArArCrArUrGrUrArArCrArArGrArAdTdT / antisense rUrUrCrUrUrGrUrUrArCrArUrGrUrUrCrGrCrAdCdA  104%
6. sense rUrGrGrArArUrGrArCrCrUrUrArArArUrGrArGdTdT / antisense rCrUrCrArUrUrUrArArGrGrUrCrArUrUrCrCrAdGdG  96.4%
7. sense rUrUrUrUrGrArCrUrCrUrCrCrUrCrArGrGrUrCdTdT / antisense rGrArCrCrUrGrArGrGrArGrArGrUrCrArArArAdGdG  95%
8. sense rUrArCrUrGrGrUrGrArArArArUrArUrUrCrCrUdTdT / antisense rArGrGrArArUrArUrUrUrUrCrArCrCrArGrUrAdAdA  94.4%
9. sense rUrUrArCrArCrArGrUrGrGrArUrUrGrUrArGrAdTdT / antisense rUrCrUrArCrArArUrCrCrArCrUrGrUrGrUrArAdTdT  92.6%
10. sense rUrUrUrArCrUrGrGrUrGrArArArArUrArUrUrCdTdT / antisense rGrArArUrArUrUrUrUrCrArCrCrArGrUrArArAdCdA  91.2%
11. sense rUrUrUrArArArUrUrUrArGrUrArGrUrCrGrArUdTdT / antisense rArUrCrGrArCrUrArCrUrArArArUrUrUrArArAdTdA  88%
12. sense rUrArUrCrUrGrUrUrUrArUrCrCrArUrUrCrUrAdTdT / antisense rUrArGrArArUrGrGrArUrArArArCrArGrArUrAdTdG  85.9%
13. sense rUrCrCrArArUrCrArGrUrUrUrGrUrCrUrUrArGdTdT / antisense rCrUrArArGrArCrArArArCrUrGrArUrUrGrGrAdCdT  85%
14. sense rUrArUrCrCrArUrUrCrUrArArCrArGrArArGrAdTdT / antisense rUrCrUrUrCrUrGrUrUrArGrArArUrGrGrArUrAdAdA  83.9%
15. sense rUrUrArArArUrUrUrArGrUrArGrUrCrGrArUrAdTdT / antisense rUrArUrCrGrArCrUrArCrUrArArArUrUrUrArAdAdT  79.9%
16. sense rUrCrArUrCrCrUrCrArUrGrUrUrUrArUrArGrCdTdT / antisense rGrCrUrArUrArArArCrArUrGrArGrGrArUrGrAdAdC  78.8%
17. sense rUrCrCrUrUrUrUrGrArCrUrCrUrCrCrUrCrArGdTdT / antisense rCrUrGrArGrGrArGrArGrUrCrArArArArGrGrAdTdA  78.4%
18. sense rUrGrCrArCrCrArGrGrUrArCrCrUrUrArUrArUdTdT / antisense rArUrArUrArArGrGrUrArCrCrUrGrGrUrGrCrAdCdC  78%
19. sense rUrGrArCrCrUrUrArArArUrGrArGrArArGrArGdTdT / antisense rCrUrCrUrUrCrUrCrArUrUrUrArArGrGrUrCrAdTdT  75%
20. sense rUrCrGrArUrArUrCrCrUrUrUrUrGrArCrUrCrUdTdT / antisense rArGrArGrUrCrArArArArGrGrArUrArUrCrGrAdCdT  74.7%
21. sense rUrCrUrArArCrArGrArArGrArCrUrGrGrUrCrCdTdT / antisense rGrGrArCrCrArGrUrCrUrUrCrUrGrUrUrArGrAdAdT  73.3%
22. sense rUrUrCrCrUrGrUrUrCrArUrCrCrUrCrArUrGrUdTdT / antisense rArCrArUrGrArGrGrArUrGrArArCrArGrGrArAdTdA  73%
23. sense rUrGrUrUrUrArUrCrCrArUrUrCrUrArArCrArGdTdT / antisense rCrUrGrUrUrArGrArArUrGrGrArUrArArArCrAdGdA  66.2%
24. sense rUrCrCrArUrUrCrUrArArCrArGrArArGrArCrUdTdT / antisense rArGrUrCrUrUrCrUrGrUrUrArGrArArUrGrGrAdTdA  64.1%
25. sense rUrArGrArCrArUrGrGrArArGrGrUrGrCrArCrCdTdT / antisense rGrGrUrGrCrArCrCrUrUrCrCrArUrGrUrCrUrAdCdA  38.9%

Source: the OligoGym collection
